This note sets out measurements from patent US8012979B2, “Compounds and their uses 707” (AstraZeneca AB, priority 2007, dated 2011).

The target of the assay is T1, human active recombinant p38α-6His tagged (Homo sapiens, UniProt Q16539).
T1 construct: 6His
Briefly: p38 Alpha Enzyme Assay (AlphaScreen, biotinylated-ATF2 substrate). Type of assay: biochemical. To be noted: pre-incubated 4 hours at 37° C., reaction initiated with ATP; 0.5 nM enzyme; read-out: p38 pIC50 (converted). On the procedure:
The ability of the compounds of formula (I) to inhibit p38 kinase may be determined using the following biological assay:
Enzyme assays were performed in polypropylene 96 well plates. The following solutions were added to each well; 10 μL of compound dilutions in assay buffer (20 mM HEPES pH 7.4, containing 20 mM magnesium acetate, 0.005% (w/v) Tween-20, 10 mM DTT) containing 1% (v/v) DMSO or assay buffer containing 1% (v/v) DMSO alone, 70 μL of assay buffer containing 36 nM substrate (biotinylated-ATF2) and 10 μL of an appropriate dilution of human active recombinant p38α-6His tagged. Depending on batch of p38, an appropriate dilution was typically a 5 nM solution to give a final enzyme concentration of 0.5 nM. At this stage, background control wells also received 50 μL of AlphaScreen quench buffer (10 mM HEPES pH 7.4 containing 100 mM EDTA, 0.2% (w/v) bovine serum albumin). The plate was covered, pre-incubated for 4 hours at 37° C. and the enzyme reaction initiated by addition of 10 μL 1 mM ATP. After incubation for a further 45 minutes at 37° C., the reaction was stopped by addition of 50 μL quench reagent and 50 μL of the quenched reaction mixture transferred to an opaque, white 96-well plate. Detection reagent, 25 μL of 10 mM HEPES pH 7.4 containing 100 mM EDTA, 0.2% (w/v) bovine serum albumin, 0.3 nM anti phosphoATF2 antibody and 25 μg/mL of ‘AlphaScreen protein A acceptor and donor beads’ (PerkinElmer Inc.), was added to all wells in a darkened room, the plate sealed and left in the dark for at least 5 hours before AlphaScreen readings were taken using a Perkin Elmer EnVision reader. Total, uninhibited activity was determined from assays performed in each assay plate. The mean control in the absence of p38 activity was subtracted from each well. Data were expressed as percent inhibition of total activity using equation 1. Percent Inhibition=100*(1−Test/Control) Eq.1 Where . . . . • Test=p38 kinase activity in the presence of compound • Control=p38 kinase activity in the absence of compound.
pIC50 is defined as the logarithm of the reciprocal of the concentration of compound required for 50% reduction in total p38 kinase activity.
Background: In Alpha technology, singlet oxygen from a donor bead excites a nearby acceptor bead.

T1 sequence (Q16539 whole entry): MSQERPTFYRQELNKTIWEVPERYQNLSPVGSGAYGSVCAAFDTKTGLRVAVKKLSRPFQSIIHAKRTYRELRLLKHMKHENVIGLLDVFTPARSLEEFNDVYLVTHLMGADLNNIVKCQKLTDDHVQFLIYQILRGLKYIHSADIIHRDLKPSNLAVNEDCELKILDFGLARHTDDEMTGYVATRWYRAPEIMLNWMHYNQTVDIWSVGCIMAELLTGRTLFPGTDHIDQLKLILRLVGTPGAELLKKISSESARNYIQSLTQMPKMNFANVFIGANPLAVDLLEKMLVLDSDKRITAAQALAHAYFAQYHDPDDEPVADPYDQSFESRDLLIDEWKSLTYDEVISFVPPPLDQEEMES

As for `Cc1ccc(C(=O)NC2CC2)cc1-c1ccc2c(=O)n(Cc3ccncc3)cc(C(=O)N3CCC(N4CCCC4)CC3)c2c1` [Example 54, N-Cyclopropyl-4-methyl-3-(1-oxo-2-(pyridin-4-ylmethyl)-4-(4-(pyrrolidin-1-yl)piperidine-1-carbonyl)-1,2-dihydroisoquinolin-6-yl)benzamide], the IC50 is 25.1 nM.
For `Cc1ccc(C(=O)NC2CC2)cc1-c1ccc2c(=O)n(Cc3ccncc3)cc(C(=O)N(C)C3CCN(C)CC3)c2c1` [Example 55, 6-(5-(Cyclopropylcarbamoyl)-2-methylphenyl)-N-methyl-N-(1-methylpiperidin-4-yl)-1-oxo-2-(pyridin-4-ylmethyl)-1,2-dihydroisoquinoline-4-carboxamide] the value was 31.6 nM; for `Cc1ccc(C(=O)NC2CC2)cc1-c1ccc2c(=O)n(Cc3ccncc3)cc(C(=O)N3CCC(N(C)C)CC3)c2c1` [Example 56, N-Cyclopropyl-3-(4-(4-(dimethylamino)piperidine-1-carbonyl)-1-oxo-2-(pyridin-4-ylmethyl)-1,2-dihydroisoquinolin-6-yl)-4-methylbenzamide], 7.94 nM; for `Cc1ccc(C(=O)NC2CC2)cc1-c1ccc2c(=O)n(Cc3ccncc3)cc(C(=O)NC3CCNCC3)c2c1` [Example 57, 6-(5-Cyclopropylcarbamoyl-2-methyl-phenyl)-1-oxo-2-pyridin-4-ylmethyl-1,2-dihydro-isoquinoline-4-carboxylic acid piperidin-4-ylamide], 1.58 nM.
The figure for `Cc1ccc(C(=O)NC2CC2)cc1-c1ccc2c(=O)n(Cc3ccncc3)cc(C(=O)N3CCC(N)CC3)c2c1` [Example 58, 3-(4-(4-Aminopiperidine-1-carbonyl)-1-oxo-2-(pyridin-4-ylmethyl)-1,2-dihydroisoquinolin-6-yl)-N-cyclopropyl-4-methylbenzamide] is 2 nM; for `Cc1ccc(C(=O)NC2CC2)cc1-c1ccc2c(=O)n(CC3CC3)cc(CN3CCCN(C)CC3)c2c1` [Example 59, N-Cyclopropyl-3-[2-cyclopropylmethyl-4-(4-methyl-[1,4]diazepan-1-ylmethyl)-1-oxo-1,2-dihydro-isoquinolin-6-yl]-4-methyl-benzamide] it is 0.316 nM.
The figure for `Cc1c(F)cc(C(=O)NC2CC2)cc1-c1ccc2c(=O)n(Cc3ccccc3)cc(C(=O)NCCN(C)C)c2c1` [Example 60, 2-Benzyl-6-(5-(cyclopropylcarbamoyl)-3-fluoro-2-methylphenyl)-N-(2-(dimethylamino)ethyl)-1-oxo-1,2-dihydroisoquinoline-4-carboxamide] is 0.398 nM.
Consider `Cc1ccc(C(=O)NC2CC2)cc1-c1ccc2c(=O)n(Cc3ccccc3)cc(CN3CCCC3)c2c1` [Example 61, 3-(2-Benzyl-1-oxo-4-(pyrrolidin-1-ylmethyl)-1,2-dihydroisoquinolin-6-yl)-N-cyclopropyl-4-methylbenzamide], for which the IC50 was 10 nM.
As to `Cc1ccc(C(=O)NC2CC2)cc1-c1ccc2c(=O)n(CC3CC3)cc(CN3CCC(N4CCCCC4)CC3)c2c1` [Example 62, 3-(4-(1,4′-Bipiperidin-1′-ylmethyl)-2-(cyclopropylmethyl)-1-oxo-1,2-dihydroisoquinolin-6-yl)-N-cyclopropyl-4-methylbenzamide], the IC50 was 5.01 nM.
For `Cc1ccc(C(=O)NC2CC2)cc1-c1ccc2c(=O)n(CC3CC3)cc(CN3CCN[C@@H](C)C3)c2c1` [Example 63, (S)—N-Cyclopropyl-3-(2-(cyclopropylmethyl)-4-((3-methylpiperazin-1-yl)methyl)-1-oxo-1,2-dihydroisoquinolin-6-yl)-4-methylbenzamide] the value was 1 nM.
On to `CNCCN(C)Cc1cn(CC2CC2)c(=O)c2ccc(-c3cc(C(=O)NC4CC4)ccc3C)cc12` [Example 64, N-Cyclopropyl-3-(2-(cyclopropylmethyl)-4-((methyl(2-(methylamino)ethyl)amino)methyl)-1-oxo-1,2-dihydroisoquinolin-6-yl)-4-methylbenzamide], for which the IC50 is 3.16 nM.
The figure for `Cc1ccc(C(=O)NC2CC2)cc1-c1ccc2c(=O)n(CC3CC3)cc(CNC3CCN(C)CC3)c2c1` [Example 65, N-Cyclopropyl-3-(2-(cyclopropylmethyl)-4-((1-methylpiperidin-4-ylamino)methyl)-1-oxo-1,2-dihydroisoquinolin-6-yl)-4-methylbenzamide] is 7.94 nM; for `Cc1ccc(C(=O)NC2CC2)cc1-c1ccc2c(=O)n(CC3CC3)cc(CN3CCC(N)CC3)c2c1` [Example 66, 3-(4-((4-Aminopiperidin-1-yl)methyl)-2-(cyclopropylmethyl)-1-oxo-1,2-dihydroisoquinolin-6-yl)-N-cyclopropyl-4-methylbenzamide] it is 0.158 nM; for `Cc1ccc(C(=O)NC2CC2)cc1-c1ccc2c(=O)n(CC3CC3)cc(CNCCN(C)C)c2c1` [Example 67, N-Cyclopropyl-3-(2-(cyclopropylmethyl)-4-((2-(dimethylamino)ethylamino)methyl)-1-oxo-1,2-dihydroisoquinolin-6-yl)-4-methylbenzamide] it is 5.01 nM.
Consider `Cc1ccc(C(=O)NC2CC2)cc1-c1ccc2c(=O)n(CC3CC3)cc(CN(C)CCN(C)C)c2c1` [Example 68, N-Cyclopropyl-3-(2-(cyclopropylmethyl)-4-(((2-(dimethylamino)ethyl)(methyl)amino)methyl)-1-oxo-1,2-dihydroisoquinolin-6-yl)-4-methylbenzamide], for which the IC50 was 3.98 nM.
On to `Cc1ccc(C(=O)NC2CC2)cc1-c1ccc2c(=O)n(CC3CC3)cc(CN3CCC(N(C)C)CC3)c2c1` [Example 69, N-Cyclopropyl-3-(2-(cyclopropylmethyl)-4-((4-(dimethylamino)piperidin-1-yl)methyl)-1-oxo-1,2-dihydroisoquinolin-6-yl)-4-methylbenzamide], for which the IC50 is 0.2 nM.
For `Cc1ccc(C(=O)NC2CC2)cc1-c1ccc2c(=O)n(CC3CC3)cc(CN3CCCNCC3)c2c1` [Example 70, N-Cyclopropyl-3-(2-cyclopropylmethyl-4-[1,4]diazepan-1-ylmethyl-1-oxo-1,2-dihydro-isoquinolin-6-yl)-4-methyl-benzamide] the value was 0.158 nM.
The figure for `Cc1ccc(C(=O)NC2CC2)cc1-c1ccc2c(=O)n(CC3CC3)cc(CNCCCN(C)C)c2c1` [Example 71, N-Cyclopropyl-3-(2-(cyclopropylmethyl)-4-((3-(dimethylamino)propylamino)methyl)-1-oxo-1,2-dihydroisoquinolin-6-yl)-4-methylbenzamide] is 10 nM.
For `Cc1ccc(C(=O)NC2CC2)cc1-c1ccc2c(=O)n(CC3CC3)cc(CN3CCCN(CCO)CC3)c2c1` [Example 72, N-Cyclopropyl-3-(2-(cyclopropylmethyl)-4-((4-(2-hydroxyethyl)-1,4-diazepan-1-yl)methyl)-1-oxo-1,2-dihydroisoquinolin-6-yl)-4-methylbenzamide] the value was 0.398 nM.
Take `Cc1ccc(C(=O)NC2CC2)cc1-c1ccc2c(=O)n(CC3CC3)cc(CN3CCCN(C(C)C)CC3)c2c1` [Example 73, N-Cyclopropyl-3-(2-(cyclopropylmethyl)-4-((4-isopropyl-1,4-diazepan-1-yl)methyl)-1-oxo-1,2-dihydroisoquinolin-6-yl)-4-methylbenzamide]: the IC50 is 1.26 nM.
Consider `Cc1ccc(C(=O)NC2CC2)cc1-c1ccc2c(=O)n(CC3CC3)cc(CN3CCN(C)CC3)c2c1` [Example 74, N-Cyclopropyl-3-(2-(cyclopropylmethyl)-4-((4-methylpiperazin-1-yl)methyl)-1-oxo-1,2-dihydroisoquinolin-6-yl)-4-methylbenzamide], for which the IC50 was 0.631 nM.
In the case of `Cc1c(F)cc(C(=O)NC2CC2)cc1-c1ccc2c(=O)n(CC3CC3)cc(CN3CCCN(C)CC3)c2c1` [Example 75, N-Cyclopropyl-3-(2-(cyclopropylmethyl)-4-((4-methyl-1,4-diazepan-1-yl)methyl)-1-oxo-1,2-dihydroisoquinolin-6-yl)-5-fluoro-4-methylbenzamide], the IC50 is 0.0501 nM.
Turning to `Cc1c(F)cc(C(=O)NC2CC2)cc1-c1ccc2c(=O)n(CC3CC3)cc(CN3CCN(C)CC3)c2c1` [Example 76, N-Cyclopropyl-3-(2-(cyclopropylmethyl)-4-((4-methylpiperazin-1-yl)methyl)-1-oxo-1,2-dihydroisoquinolin-6-yl)-5-fluoro-4-methylbenzamide], the IC50 is 0.1 nM.
For `Cc1c(F)cc(C(=O)NC2CC2)cc1-c1ccc2c(=O)n(CC3CC3)cc(CNCCCN(C)C)c2c1` [Example 77, N-Cyclopropyl-3-(2-(cyclopropylmethyl)-4-((3-(dimethylamino)propylamino)methyl)-1-oxo-1,2-dihydroisoquinolin-6-yl)-5-fluoro-4-methylbenzamide], the IC50 is 1.58 nM.
